Results as given in US5811241A, “Method for preparing and identifying N-substitued 1,4-piperazines and N-substituted 1,4-piperazinediones” (Cortech, Inc., priority 1995, dated 1998).

Biological target: T1, human BK2 receptor (Homo sapiens, UniProt P30411)
T1 construct: expressed in transfected cells; host or cells: CHO-K1 (ATCC)
T1 sequence (P30411 1-391): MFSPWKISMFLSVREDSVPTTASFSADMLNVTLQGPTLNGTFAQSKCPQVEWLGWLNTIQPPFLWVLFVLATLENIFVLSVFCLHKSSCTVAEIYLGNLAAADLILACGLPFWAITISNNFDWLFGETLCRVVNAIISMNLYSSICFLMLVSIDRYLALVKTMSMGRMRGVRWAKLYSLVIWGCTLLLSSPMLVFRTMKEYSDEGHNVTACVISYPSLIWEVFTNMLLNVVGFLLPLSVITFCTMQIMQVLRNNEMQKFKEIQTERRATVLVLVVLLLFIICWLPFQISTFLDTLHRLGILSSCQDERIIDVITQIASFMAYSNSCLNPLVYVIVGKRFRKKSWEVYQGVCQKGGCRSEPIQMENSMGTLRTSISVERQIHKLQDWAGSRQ
Assay: Bradykinin 2 human receptor clone binding assay (inhibition of radio-labeled bradykinin binding)
Conditions: compound resynthesized in pure form, read-out: IC50, BK binding inhibition
Protocol: Bradykinin 2 and Bradykinin 1 Human Receptor Clone Binding Assays
Human bradykinin B2 receptor was expressed in CHO-K1 (ATCC) cells. Preparation of membranes for binding assay was carried out by scraping cells from roller bottles in ice cold PBS and centrifuging at 1000× g, at 4° C. for 15 minutes. The supernatant was discarded and pellet resuspended in Buffer A consisting of 25 mM TES (pH 6.8) with 2 uM 1,10-phenanthroline, and centrifuged at 27,000× g for 15 min. The pellet was washed once using the same buffer and centrifugation parameters. The final pellet was resuspended in Buffer B (Buffer A with 2 uM captopril, 140 ug/ml bacitracin, 0.1% BSA), and stored in 1 ml aliquot, frozen at -70° C. until needed.
B2 Binding assays were performed by incubating human clone membrane solution with ^3 H-bradykinin (final concentration 0.3 nM) with or without test compounds in assay buffer (Buffer B with 1 mM dithiothreitol), at room temperature, for 45 minutes, at a final volume of 315 ul. All test compound dilutions were done in triplicate. Assays were harvested by quick filtration in a Tomtec Harvester 96, with ice-cold wash buffer consisting of 10 mM Tris/HCl, pH 7.5, 100 mM NaCl,0.02% BSA, onto Wallec printed glassfiber Filtermat "B", which had been pre-soaked with 0.1% PEI and previously air-dried. Filtermats were counted in 9.5 ml Wallec Beta-Plate Scint, in Wallec 1450 MicroBeta Counter.

Row | IC50 | SMILES
1 | 4.1 µM | N=C(N)NCCCCCCN1CC(=O)N(Cc2ccc3ccccc3c2)C(C2Cc3ccccc3C2)C1=O (racemic) [Example 60]
2 | 13 µM | N=C(N)NCCCCCCCN1CC(=O)N(Cc2ccc(-c3ccccc3)cc2)C(C2Cc3ccccc3C2)C1=O (racemic) [Example 61]
